Measured values taken from ChEMBL document CHEMBL1201862, “PubChem BioAssay data set” (2004).
The source made the active and inactive calls.

Tests used:
[1] = target: T1, Endoribonuclease toxin MazF (Escherichia coli K-12, UniProt P0AE70); assay: fluorescent RNA oligo signal without MazF, dose response, counter-screen for MazEF activator project, biochemical, fluorescence, single-stranded RNase substrate (AID 588502); assay type: functional
T1 sequence (P0AE70 whole entry): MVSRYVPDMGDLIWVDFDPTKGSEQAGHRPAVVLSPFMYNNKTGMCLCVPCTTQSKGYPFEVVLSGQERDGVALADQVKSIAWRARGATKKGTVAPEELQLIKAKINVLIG

[2] = target: T1, Endoribonuclease toxin MazF; assay: MazF toxin RNase activators, dose response, biochemical, fluorescence, single-stranded RNA substrate, uHTS hits (AID 588481); assay type: functional
[3] = target: Beta-lactamase (Pseudomonas aeruginosa, UniProt Q79MP6);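 further: biochemical dose-response test of metallo-beta-lactamase enzyme inhibition, read out by epi-absorbance; purified recombinant IMP-1 metallo-beta-lactamase with nitrocefin as substrate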
[4] = target: T2, Beta Lactamase (Pseudomonas aeruginosa, UniProt Q932Y6);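 further: confirmatory high-throughput screen measuring VIM-2 metallo-beta-lactamase inhibition by epi-absorbance in dose response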
[5] = target: Beta-lactamase (Salmonella choleraesuis (strain SC-B67), UniProt Q5J463)
[6] = target: T3, Low molecular weight phosphotyrosine protein phosphatase (Homo sapiens, UniProt P24666); assay type: functional; settings: read-out: IC50_Mean
T3 sequence (P24666 whole entry): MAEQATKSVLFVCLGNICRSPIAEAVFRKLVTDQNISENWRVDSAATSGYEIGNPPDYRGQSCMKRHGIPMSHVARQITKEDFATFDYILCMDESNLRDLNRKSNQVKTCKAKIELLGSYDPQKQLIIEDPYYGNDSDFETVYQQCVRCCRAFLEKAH

[7] = target: T4, Carboxy-terminal domain RNA polymerase II polypeptide A small phosphatase 1 (Homo sapiens, UniProt Q9GZU7); assay: inhibitors of CTDSP1, concentration-response testing, biochemical assay, absorbance-based, actives from ultra-high-throughput screening (AID 540297); assay type: functional
T4 sequence (Q9GZU7 whole entry): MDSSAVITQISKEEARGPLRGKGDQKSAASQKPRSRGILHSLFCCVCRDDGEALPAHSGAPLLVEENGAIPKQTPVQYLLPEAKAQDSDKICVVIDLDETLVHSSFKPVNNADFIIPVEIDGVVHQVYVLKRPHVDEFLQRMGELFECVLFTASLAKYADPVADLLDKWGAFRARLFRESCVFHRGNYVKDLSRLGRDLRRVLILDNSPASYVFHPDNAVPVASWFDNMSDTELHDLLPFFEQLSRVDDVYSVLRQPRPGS

[8] = target: T3, Low molecular weight phosphotyrosine protein phosphatase; assay type: functional; settings: read-out: IC50_Mean; remark: listed apart in the source
[9] = tested on: Vero; assay: Vero cell toxicity, dose response, cytotoxicity control, plate reader, cherry-pick samples (AID 687020); assay type: functional, cell-based; settings: Chlorocebus sabaeus
[10] = target: T5, Melanocortin receptor 4 (Homo sapiens, UniProt P32245); assay type: functional, cell-based;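 further: Cell-based assay with luminescence read-out, confirmatory dose-response testing for agonist activity of biased ligands at MC4R; human U2OS cells with tagged receptor and beta-arrestin; potency of agonists that increase receptor coupling to beta-arrestin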
[11] = target: T6, Botulinum neurotoxin type A (Clostridium botulinum (strain Hall / ATCC 3502 / NCTC 13319 / Type A), UniProt P0DPI1); assay: High-throughput multiplex microsphere dose response for inhibitors of toxin protease, specifically Botulinum neurotoxin light chain A protease, compounds from Cherry Pick 01.; assay type: functional; settings: read-out: EC50_MICROM
[12] = target: Lethal factor (Bacillus anthracis, UniProt P15917); assay: High-throughput multiplex microsphere dose response for inhibitors of toxin protease, specifically Lethal Factor protease, compounds from Powder Set 01.; assay type: functional, Bacillus anthracis str. A2012; settings: read-out: EC50_MICROM
[13] = target: T6, Botulinum neurotoxin type A; assay: High-throughput multiplex microsphere dose response for inhibitors of toxin protease, specifically Botulinum neurotoxin light chain A protease, compounds from Powder Set 01.; assay type: functional, Clostridium botulinum A str. ATCC 3502; settings: read-out: EC50_MICROM
[14] = target: T6, Botulinum neurotoxin type A; assay: Confirmatory FRET assay using full length substrates for Botulinum neurotoxin light chain A protease, with Powder Set01.; assay type: functional
[15] = target: Botulinum neurotoxin type F (Clostridium botulinum, UniProt P30996); assay: High-throughput multiplex microsphere dose response for inhibitors of toxin protease, specifically Botulinum neurotoxin light chain F protease, compounds from Powder Set 01.; assay type: functional, Clostridium botulinum Bf; settings: read-out: EC50_MICROM
[16] = target: Nuclear receptor subfamily 0 group B member 1 (Homo sapiens, UniProt P51843); assay type: functional, cell-based;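 further: HEK293T cells transfected with SF-1 and DAX-1 plus StAR promoter luciferase reporter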
[17] = cells; assay type: functional, cell-based
[18] = cells; assay type: functional, cell-based; remark: listed apart in the source
[19] = cells; assay type: functional, cell-based; remark: listed apart in the source
[20] = target: T7, Trace amine-associated receptor 1 (Homo sapiens, UniProt Q96RJ0); assay: Fluorescence-based cell-based high throughput dose response assay to identify agonists of the human trace amine associated receptor 1 (TAAR1).; assay type: functional
T7 sequence (Q96RJ0 whole entry): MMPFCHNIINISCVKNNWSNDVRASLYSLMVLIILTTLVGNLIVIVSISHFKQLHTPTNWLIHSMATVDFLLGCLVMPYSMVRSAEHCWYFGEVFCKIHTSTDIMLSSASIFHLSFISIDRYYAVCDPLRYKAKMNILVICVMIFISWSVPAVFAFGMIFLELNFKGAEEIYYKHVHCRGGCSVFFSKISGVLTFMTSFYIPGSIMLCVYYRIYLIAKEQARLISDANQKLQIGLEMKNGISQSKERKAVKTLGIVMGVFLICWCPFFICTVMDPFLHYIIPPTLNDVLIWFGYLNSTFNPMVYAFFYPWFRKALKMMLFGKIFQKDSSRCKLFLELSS

[21] = target: T7, Trace amine-associated receptor 1; assay: Counterscreen for agonists of the human trace amine associated receptor 1 (hTAAR1): Fluorescence-based cell-based high throughput dose response assay to identify hTAAR1 agonist that also desensitize TAAR1 receptor response.; assay type: functional
[22] = miR-122 activators in hepatoma reporter cells, dose response, cell-based, Huh7 psiCHECK-miR122, Renilla luciferase, cherry-picked (AID 651956); assay type: functional;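 further: huh7 hepatoma cells stably carrying a psiCHECK-2 miR-122 sensor plasmid; renilla luciferase signal reporting endogenous miR-122 activity after 48 h compound exposure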
[23] = HEK293T cytotoxicity, dose response, cytotoxicity control for miR-122 modulator project, cell-based, activator set, cherry-pick (AID 720690); assay type: functional;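 further: HEK293T human cells scored for general mammalian cytotoxicity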
[24] = HEK293T cytotoxicity, dose response, cytotoxicity control for miR-122 modulator project, cell-based, inhibitor set, cherry-pick, set 2 (AID 720697); assay type: functional
[25] = target: Fructose-bisphosphate aldolase (Mycobacterium tuberculosis, UniProt P9WQA3); assay: Fluorescence-based biochemical high throughput dose response assay for inhibitors of the fructose-bisphosphate aldolase (FBA) of M. tuberculosis.; assay type: functional
[26] = inhibitors of TNFa-stimulated NF-kB luciferase reporter, dose response, selectivity assay for EBV LMP1 NF-kB inhibitor project, HEK293 LMP1 reporter cells, dry powder, set 2 (AID 624369); assay type: functional
[27] = HEK293 cell viability, dose response, counter-screen for EBV LMP1 inhibitor project, dry powder, set 2 (AID 624374); assay type: functional
[28] = inhibitors of LMP1-driven NF-kB reporter, dose response, cell-based, EBV LMP1, luciferase, dry powder, set 2 (AID 624361); assay type: functional
[29] = LMP1-driven NF-kB reporter inhibition, dose response, cell-based, luciferase reporter, luminescence, dry powder, set 2 (AID 624376); assay type: functional
[30] = target: Beta-galactosidase (Escherichia coli, UniProt Q8VNN2); assay: Dose response counterscreen for EBI2 assay utilizing the enzyme, b-galactosidase.; assay type: functional
[31] = target: T8, Rac GTPase-activating protein 1 (Homo sapiens, UniProt Q9H0H5); assay: MgcRacGAP GTPase-activating activity inhibitors, confirmation, biochemical, ADP Hunter fluorescence, primary and confirmatory (AID 624330); assay type: functional
T8 sequence (Q9H0H5 whole entry): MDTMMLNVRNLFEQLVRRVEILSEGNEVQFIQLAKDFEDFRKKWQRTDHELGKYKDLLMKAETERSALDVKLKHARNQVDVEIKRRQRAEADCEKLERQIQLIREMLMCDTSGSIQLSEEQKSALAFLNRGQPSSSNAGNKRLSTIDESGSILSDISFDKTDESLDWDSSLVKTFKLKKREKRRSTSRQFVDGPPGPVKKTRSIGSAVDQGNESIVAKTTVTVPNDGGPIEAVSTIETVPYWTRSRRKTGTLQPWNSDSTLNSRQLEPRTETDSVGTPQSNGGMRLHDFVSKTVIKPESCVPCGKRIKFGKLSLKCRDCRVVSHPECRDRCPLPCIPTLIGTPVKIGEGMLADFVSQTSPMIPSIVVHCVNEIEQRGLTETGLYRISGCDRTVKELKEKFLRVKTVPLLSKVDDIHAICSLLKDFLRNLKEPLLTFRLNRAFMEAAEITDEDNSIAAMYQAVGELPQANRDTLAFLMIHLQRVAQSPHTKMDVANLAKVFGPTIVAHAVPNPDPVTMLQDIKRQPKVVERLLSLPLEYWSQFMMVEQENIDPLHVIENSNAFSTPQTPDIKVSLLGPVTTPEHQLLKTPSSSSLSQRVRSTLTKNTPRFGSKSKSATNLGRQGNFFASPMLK

[32] = Fluorescence-based cell-based high throughput dose response assay for inhibitors of the interaction of nucleotide-binding oligomerization domain containing 2 (NOD2) and the receptor-interacting serine-threonine kinase 2 (RIPK2).; assay type: functional; settings: Homo sapiens
[33] = target: Hexokinase (Trypanosoma brucei, UniProt Q38C41); assay: Confirmation assay for inhibitors of Trypanosoma brucei hexokinase 1-Analogue-first series. [Related pubchem assays (depositor defined):AID1430, AID1632, AID2516, AID2560, AID2579, AID2600, AID449725, AID492951]; assay type: functional
[34] = target: T2, Beta Lactamase; assay: beta-lactamase reporter inhibitor potency, dose response, artefact control for NOD2-RIPK2 interaction inhibitor project, BLA reporter cells, FRET fluorescence (AID 651552); assay type: functional, cell-based
[35] = target: SWI/SNF-related matrix-associated actin-dependent regulator of chromatin subfamily A member 2 (Homo sapiens, UniProt P51531); assay: Luminescence-based cell-based high throughput dose response assay to identify activators of the function of SWI/SNF related, matrix associated, actin dependent regulator of chromatin, subfamily a, member 2 (SMARCA2, BRM).; assay type: functional
[36] = target: Glucose-6-phosphate 1-dehydrogenase (Homo sapiens, UniProt P11413); assay: human G6PD enzyme inhibitors, dose response, selectivity assay for P. falciparum G6PD inhibitor project, biochemical, fluorescence (AID 504792); assay type: functional
[37] = target: Mitochondrial peptide methionine sulfoxide reductase (Bos taurus, UniProt P54149); assay: Absorbance-based biochemical high throughput dose response assay for activators of Methionine sulfoxide reductase A (MsrA).; assay type: functional
[38] = Counterscreen for activators of the function of SWI/SNF related, matrix associated, actin dependent regulator of chromatin, subfamily a, member 2 (SMARCA2, BRM): Luminescence-based cell-based high throughput dose response assay to identify non-selective compounds using the VP16 reporter assay.; assay type: functional
[39] = HepG2 cell cytotoxicity, dose response, cytotoxicity control for Shn3 inhibitor project, CellTiter-Glo, cherry-picked (AID 624134); assay type: functional, cell-based
[40] = nonselective inhibitors of cellular cAMP signaling, dose response, counter-screen for MC4R biased antagonist project, cell-based, TR-FRET cAMP detection (AID 602305); assay type: functional;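 further: U2OS cells stimulated with forskolin near its EC80 as the cAMP inducer; potency is for inhibition of forskolin-stimulated cAMP signaling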
[41] = target: T5, Melanocortin receptor 4; assay: MC4R antagonist potency on cAMP, dose response, cell-based, TR-FRET, biased antagonists (AID 602298); assay type: functional;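 further: antagonist potency against agonist-stimulated cAMP production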
[42] = control 3'UTR Renilla luciferase suppression, dose response, counter-screen for Shn3 inhibitor project, cell-based, Clone20-Shn3RL, cherry-picked (AID 624133); assay type: functional
[43] = Shn3 3'UTR reporter inhibitors, dose response, cell-based, Clone20 osteoblasts, firefly luciferase, cherry-picked (AID 624132); assay type: functional;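 further: firefly luciferase luminescence from reporter carrying the Shn3 3'UTR in osteoblasts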

T6 sequence (P0DPI1 2-448 limits assumed): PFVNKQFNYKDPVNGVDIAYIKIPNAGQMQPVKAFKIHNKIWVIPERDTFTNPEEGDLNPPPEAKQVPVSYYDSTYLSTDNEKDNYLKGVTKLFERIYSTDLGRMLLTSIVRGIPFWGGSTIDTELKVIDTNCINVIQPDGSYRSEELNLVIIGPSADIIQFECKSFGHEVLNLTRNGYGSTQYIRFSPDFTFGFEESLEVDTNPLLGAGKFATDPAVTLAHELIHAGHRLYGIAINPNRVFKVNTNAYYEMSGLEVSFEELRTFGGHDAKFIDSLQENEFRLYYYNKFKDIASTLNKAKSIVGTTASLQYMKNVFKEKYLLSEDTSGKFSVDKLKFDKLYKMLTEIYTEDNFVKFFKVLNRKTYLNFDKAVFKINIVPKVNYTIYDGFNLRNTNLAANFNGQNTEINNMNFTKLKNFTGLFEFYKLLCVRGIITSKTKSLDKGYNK
T2 sequence (Q932Y6 whole entry): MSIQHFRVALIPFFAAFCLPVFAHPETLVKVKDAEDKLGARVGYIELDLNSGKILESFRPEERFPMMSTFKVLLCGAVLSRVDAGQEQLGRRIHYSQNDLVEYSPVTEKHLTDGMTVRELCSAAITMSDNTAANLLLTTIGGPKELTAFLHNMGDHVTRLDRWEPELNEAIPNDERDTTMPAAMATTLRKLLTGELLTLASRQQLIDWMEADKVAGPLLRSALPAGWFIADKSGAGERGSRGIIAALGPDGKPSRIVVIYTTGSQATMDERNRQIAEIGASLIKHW
T5 sequence (P32245 whole entry): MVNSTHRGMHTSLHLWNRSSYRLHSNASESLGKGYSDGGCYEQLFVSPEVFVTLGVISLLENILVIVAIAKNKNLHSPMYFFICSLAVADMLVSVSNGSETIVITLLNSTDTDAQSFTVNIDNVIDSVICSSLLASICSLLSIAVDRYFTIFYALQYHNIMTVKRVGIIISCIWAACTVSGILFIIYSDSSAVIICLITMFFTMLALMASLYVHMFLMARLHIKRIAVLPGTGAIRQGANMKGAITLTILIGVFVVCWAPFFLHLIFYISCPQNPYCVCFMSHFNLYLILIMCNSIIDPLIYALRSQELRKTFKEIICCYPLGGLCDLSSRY
Chain of Lethal factor (P15917 whole entry): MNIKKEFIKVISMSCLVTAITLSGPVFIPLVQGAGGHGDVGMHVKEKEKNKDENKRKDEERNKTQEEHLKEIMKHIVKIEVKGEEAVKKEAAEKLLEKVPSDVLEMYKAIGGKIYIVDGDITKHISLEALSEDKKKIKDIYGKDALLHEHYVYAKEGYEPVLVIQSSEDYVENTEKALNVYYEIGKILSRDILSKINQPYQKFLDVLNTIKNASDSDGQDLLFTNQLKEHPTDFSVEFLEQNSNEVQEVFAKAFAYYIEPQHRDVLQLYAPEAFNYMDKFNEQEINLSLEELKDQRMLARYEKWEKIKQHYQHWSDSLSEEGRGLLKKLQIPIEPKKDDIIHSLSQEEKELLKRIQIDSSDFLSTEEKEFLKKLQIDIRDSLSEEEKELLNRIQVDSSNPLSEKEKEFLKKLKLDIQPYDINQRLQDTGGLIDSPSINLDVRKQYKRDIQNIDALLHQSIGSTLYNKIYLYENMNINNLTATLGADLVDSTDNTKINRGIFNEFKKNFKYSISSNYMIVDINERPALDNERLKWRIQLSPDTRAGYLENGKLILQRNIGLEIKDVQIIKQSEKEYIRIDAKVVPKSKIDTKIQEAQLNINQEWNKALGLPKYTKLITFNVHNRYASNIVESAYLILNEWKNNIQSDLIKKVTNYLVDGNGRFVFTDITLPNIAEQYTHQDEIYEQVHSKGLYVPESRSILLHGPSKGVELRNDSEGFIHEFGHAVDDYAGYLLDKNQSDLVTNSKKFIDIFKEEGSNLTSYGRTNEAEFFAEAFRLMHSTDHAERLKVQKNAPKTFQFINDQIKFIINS
Chain of Hexokinase (Q38C41 whole entry): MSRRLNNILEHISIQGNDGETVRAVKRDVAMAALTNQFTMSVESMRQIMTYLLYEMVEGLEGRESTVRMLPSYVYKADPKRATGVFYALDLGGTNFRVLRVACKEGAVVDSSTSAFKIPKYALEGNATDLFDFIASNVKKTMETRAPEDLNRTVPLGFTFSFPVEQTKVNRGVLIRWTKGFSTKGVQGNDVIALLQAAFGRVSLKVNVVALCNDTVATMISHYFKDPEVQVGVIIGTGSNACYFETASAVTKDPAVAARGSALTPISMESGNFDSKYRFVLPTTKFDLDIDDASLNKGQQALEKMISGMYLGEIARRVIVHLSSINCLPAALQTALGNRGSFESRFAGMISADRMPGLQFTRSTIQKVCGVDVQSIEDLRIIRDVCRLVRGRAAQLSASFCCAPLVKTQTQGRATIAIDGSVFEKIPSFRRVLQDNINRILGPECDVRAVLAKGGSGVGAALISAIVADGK
Chain of SWI/SNF-related matrix-associated actin-dependent regulator of chromatin subfamily A member 2 (P51531 whole entry): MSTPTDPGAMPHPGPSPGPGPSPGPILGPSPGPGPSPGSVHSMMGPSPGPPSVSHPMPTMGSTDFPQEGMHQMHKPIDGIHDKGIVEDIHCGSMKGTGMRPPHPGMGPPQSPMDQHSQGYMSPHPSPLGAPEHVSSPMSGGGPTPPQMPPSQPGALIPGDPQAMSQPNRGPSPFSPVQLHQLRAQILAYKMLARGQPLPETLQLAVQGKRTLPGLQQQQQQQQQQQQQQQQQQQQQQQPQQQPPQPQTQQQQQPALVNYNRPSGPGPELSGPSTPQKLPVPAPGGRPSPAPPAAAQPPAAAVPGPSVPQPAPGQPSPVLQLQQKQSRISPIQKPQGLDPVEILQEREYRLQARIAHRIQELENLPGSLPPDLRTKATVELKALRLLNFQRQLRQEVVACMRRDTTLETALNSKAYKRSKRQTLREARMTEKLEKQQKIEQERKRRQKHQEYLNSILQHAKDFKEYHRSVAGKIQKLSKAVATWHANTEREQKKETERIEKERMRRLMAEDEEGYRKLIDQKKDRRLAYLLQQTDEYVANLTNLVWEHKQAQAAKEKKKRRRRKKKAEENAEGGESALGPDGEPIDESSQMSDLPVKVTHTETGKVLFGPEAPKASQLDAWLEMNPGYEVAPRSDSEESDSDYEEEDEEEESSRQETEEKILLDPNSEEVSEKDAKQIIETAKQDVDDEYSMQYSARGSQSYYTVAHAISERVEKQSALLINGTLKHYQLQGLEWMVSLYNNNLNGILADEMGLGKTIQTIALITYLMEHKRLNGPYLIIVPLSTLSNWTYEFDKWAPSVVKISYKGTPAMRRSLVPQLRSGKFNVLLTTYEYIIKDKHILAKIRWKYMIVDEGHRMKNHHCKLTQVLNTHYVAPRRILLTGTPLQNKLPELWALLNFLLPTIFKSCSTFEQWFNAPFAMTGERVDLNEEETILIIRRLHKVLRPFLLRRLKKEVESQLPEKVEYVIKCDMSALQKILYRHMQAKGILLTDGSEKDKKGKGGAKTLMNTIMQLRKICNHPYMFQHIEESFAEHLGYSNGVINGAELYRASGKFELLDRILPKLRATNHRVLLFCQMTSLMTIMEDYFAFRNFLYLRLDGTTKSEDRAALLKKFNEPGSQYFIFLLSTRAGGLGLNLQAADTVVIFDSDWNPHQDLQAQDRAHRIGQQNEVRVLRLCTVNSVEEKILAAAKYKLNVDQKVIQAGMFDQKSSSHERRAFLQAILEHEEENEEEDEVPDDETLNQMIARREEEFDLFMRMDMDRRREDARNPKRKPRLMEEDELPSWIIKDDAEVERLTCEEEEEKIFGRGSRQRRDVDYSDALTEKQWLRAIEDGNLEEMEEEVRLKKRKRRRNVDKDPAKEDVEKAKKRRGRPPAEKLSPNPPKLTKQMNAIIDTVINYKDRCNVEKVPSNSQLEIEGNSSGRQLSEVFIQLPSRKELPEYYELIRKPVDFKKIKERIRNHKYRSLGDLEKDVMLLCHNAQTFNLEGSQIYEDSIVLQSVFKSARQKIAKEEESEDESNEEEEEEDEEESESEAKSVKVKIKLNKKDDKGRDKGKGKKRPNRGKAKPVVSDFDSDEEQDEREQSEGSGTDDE
Chain of Beta-galactosidase (Q8VNN2 whole entry): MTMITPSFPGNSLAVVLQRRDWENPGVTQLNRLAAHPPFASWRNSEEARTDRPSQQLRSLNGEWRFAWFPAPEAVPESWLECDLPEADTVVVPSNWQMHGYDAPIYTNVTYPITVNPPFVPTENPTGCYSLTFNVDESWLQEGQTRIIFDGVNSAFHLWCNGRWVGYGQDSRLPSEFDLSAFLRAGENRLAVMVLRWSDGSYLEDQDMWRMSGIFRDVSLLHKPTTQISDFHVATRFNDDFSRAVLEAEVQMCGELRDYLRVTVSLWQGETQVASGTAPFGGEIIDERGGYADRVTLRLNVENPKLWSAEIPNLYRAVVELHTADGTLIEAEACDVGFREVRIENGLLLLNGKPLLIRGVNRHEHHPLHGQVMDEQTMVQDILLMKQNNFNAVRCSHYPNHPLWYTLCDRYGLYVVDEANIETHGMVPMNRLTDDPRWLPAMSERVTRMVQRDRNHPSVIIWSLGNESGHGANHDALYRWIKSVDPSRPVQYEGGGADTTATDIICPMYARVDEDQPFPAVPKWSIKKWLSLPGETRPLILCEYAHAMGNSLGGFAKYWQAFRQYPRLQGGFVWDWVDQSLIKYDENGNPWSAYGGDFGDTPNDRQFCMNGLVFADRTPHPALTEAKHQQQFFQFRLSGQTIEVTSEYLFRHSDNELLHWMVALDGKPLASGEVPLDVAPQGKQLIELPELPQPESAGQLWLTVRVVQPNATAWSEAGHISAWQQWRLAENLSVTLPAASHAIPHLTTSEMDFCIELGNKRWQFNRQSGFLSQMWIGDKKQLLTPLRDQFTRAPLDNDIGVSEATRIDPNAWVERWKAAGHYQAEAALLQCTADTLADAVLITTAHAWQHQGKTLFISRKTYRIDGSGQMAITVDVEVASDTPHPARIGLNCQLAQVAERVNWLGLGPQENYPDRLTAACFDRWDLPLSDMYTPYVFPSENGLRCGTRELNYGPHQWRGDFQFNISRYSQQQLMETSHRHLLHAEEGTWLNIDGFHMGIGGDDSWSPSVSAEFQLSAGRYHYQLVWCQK

Oc1ccc2ccccc2c1-c1sc(Nc2ccccc2)n[n+]1-c1ccc(F)cc1
EC50 [1]: > 99 µM (inactive)
EC50 [2]: > 99 µM (inactive)
IC50 [3]: 46.8 µM (inactive)
IC50 [4]: 32 µM (inactive)
IC50 [5]: 23.7 µM (inactive)

O=C(N/N=C\c1ccc(OC(=O)c2cccs2)cc1)c1ccc(Cl)cc1
IC50 [6]: 11.4 µM (active)
IC50 [7]: 2.16 µM (active)
IC50 [8]: 4.51 µM (active)

COc1ccc(NC(=O)N[C@H]2CC[C@@H](CCn3cc(C4(O)CCCC4)nn3)O[C@@H]2CO)cc1
AC50 [9]: 36.7 µM (active)

CC(=O)Nc1cc(-c2ccc(N(C)C)cc2)cn2c(-c3ccc(F)c(Cl)c3)cnc12
EC50 [10]: 3.99 µM (active)

O=C(Nc1ccc2nc(-c3cccs3)c(-c3cccs3)nc2c1)N1CCOCC1
EC50 [11]: 15.5 µM (active)
EC50 [12]: 7.6 µM (active)
EC50 [13]: 5.8 µM (active)
EC50 [14]: 0.4 µM (active)
EC50 [15]: 9.6 µM (active)

CC1CCc2sc(C(=O)NC(C)C3CCCO3)cc2C1 (stereo not drawn)
IC50 [16]: > 67.5 µM (inactive)
IC50 [17]: > 67.5 µM (inactive)

O=C(O)C1C2CCC(C2)C1C(=O)NCCc1cccc(Cl)c1 (stereo not drawn)
EC50 [18]: > 29.9 µM (inactive)
IC50 [19]: > 29.9 µM (inactive)
EC50 [20]: 2.58 µM (active)
IC50 [21]: > 29.9 µM (inactive)

C[C@H](CO)N1C[C@H](C)[C@H](CN(C)C(=O)c2ccc3c(c2)OCO3)Oc2cc(C#Cc3ccccc3F)ccc2S1(=O)=O
AC50 [22]: 36.6 µM (active)
AC50 [23]: 20.8 µM (active)
AC50 [24]: 23.7 µM (active)

COc1ccc2oc(=O)c(C(=O)NCc3ccccn3)cc2c1
IC50 [25]: 1.53 µM (active)

COc1cccc(C(=O)Nc2ccc3c(c2)C(=O)N(C)C[C@H](OC)[C@@H](C)CN(CCc2ccccc2)[C@@H](C)CO3)c1
AbsAC35 [26]: 55.16 µM
AbsAC35 [27]: 50.41 µM
AbsAC35 [28]: 44.38 µM
AbsAC35 [29]: 39.75 µM

CN(Cc1ccccc1)C(=O)COc1ccc2ccccc2c1
IC50 [30]: > 80 µM (inactive)

CC(=O)Nc1ccc2sn(-c3ccccc3)c(=O)c2c1
IC50 [31]: 53.3 µM (active)
IC50 [32]: 6.19 µM (active)
IC50 [33]: 6.31 µM (active)
IC50 [34]: 23.4 µM (inactive)
EC50 [35]: > 91.2 µM (inactive)
IC50 [36]: 12.1 µM (active)
EC50 [37]: > 104 µM (inactive)
EC50 [38]: > 91.2 µM (inactive)

O=C(CSc1c2c(nc3ccc(Cl)cc13)CCCC2)N1CCN(C(=O)c2ccco2)CC1
AC50 [39]: 65.3 µM (active)
IC50 [40]: > 64.6 µM (inactive)
IC50 [41]: > 64.6 µM (inactive)
AC50 [42]: 11.8 µM (active)
AC50 [43]: 3.75 µM (active)
